Where a name gives a salt, the structure may show the parent alone.

The target of the first assay is T1, 5-HT6 receptor (Homo sapiens (Human), UniProt P50406). The assay is described as follows: functional assay for serotonin 5-HT6 receptor inhibition (serotonin-induced intracellular cAMP, LANCE cAMP kit, HEK 293 cells). The conditions noted are these: HEK 293 cells with expressed 5-HT6 receptor; reduction of serotonin-induced intracellular cAMP. Type of assay: cell-based. The method, then: Determination of antagonistic activity of compounds of the general formula 1 towards 5-HT6 receptors. Compounds of the general formula 1 were tested for their ability to prevent 5-HT6 receptors activation by serotonin. HEK 293 cells (cells of human embryo's kidney) with artificially expressed 5-HT6 receptor, activation of which by serotonin leads to increasing the concentration of intracellular cAMP, were used. The level of intracellular cAMP was determined using reagent kit LANCE cAMP (PerkinElmer) according to the method described by the manufacturer of the kit [http://las.perkinelmer.com/content/Manuals/MAN_LANCEcAMP384KitUser.pdf]. Effectiveness of the compounds was estimated by their ability to reduce the level of intracellular cAMP induced by serotonin. Table 4 presents IC50 values for the compounds of general formula 1 in the setting of functional assay for serotonin 5-HT6 receptor inhibition. The data given testify their moderate or high antagonistic activity.
T1 sequence (P50406 whole entry): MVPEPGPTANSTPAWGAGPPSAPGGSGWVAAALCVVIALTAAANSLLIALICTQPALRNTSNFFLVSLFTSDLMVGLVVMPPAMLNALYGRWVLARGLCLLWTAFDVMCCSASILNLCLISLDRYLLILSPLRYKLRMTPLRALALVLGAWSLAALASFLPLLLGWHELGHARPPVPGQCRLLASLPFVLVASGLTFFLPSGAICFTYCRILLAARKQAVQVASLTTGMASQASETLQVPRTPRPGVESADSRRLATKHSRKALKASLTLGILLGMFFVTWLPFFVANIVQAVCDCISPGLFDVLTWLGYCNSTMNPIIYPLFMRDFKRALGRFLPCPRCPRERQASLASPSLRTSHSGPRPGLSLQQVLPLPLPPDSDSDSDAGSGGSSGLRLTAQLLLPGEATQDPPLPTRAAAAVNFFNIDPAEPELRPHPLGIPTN
A general note: In TR-FRET formats the signal depends on donor and acceptor labels being close together.
As a reminder, the IC50 is the midpoint of a concentration-inhibition curve. Consider `CNc1nn2c(C)cc(-c3ccncc3)nc2c1S(=O)(=O)c1ccccc1` [1.2.8(8), 7-methyl-2-methylamino-5-(pyridin-4-yl)-3-phenylsulfonyl-pyrazolo[1,5-a]pyrimidine], for which half-maximal inhibition (IC50) required 4 nM. `CNc1nn2c(C)c(CCC(=O)N3CCN(C)CC3)c(C)nc2c1S(=O)(=O)c1ccccc1` [1.2.19(4).HCl]: the IC50 is 6060 nM.

`CSc1nn2ccc(C)nc2c1S(=O)(=O)c1ccc(F)cc1` [1.1.2(2), 5-methyl-2-methylsulfanyl-3-(4-fluorophenylsulfonyl)-pyrazolo[1,5-a]pyrimidine]: the IC50 turned out to be 996 nM.

The molecule `CNc1nn2c(C)c(N)c(C)nc2c1S(=O)(=O)c1ccccc1` [1.2.22(1).HCl] came in with an IC50 of 11.3 nM. Still for that read-out and setting: in the case of `CSc1nn2cccnc2c1S(=O)(=O)c1ccccc1` [1.1.1(1), 2-methylsulfanyl-3-phenylsulfonyl-pyrazolo[1,5-a]pyrimidine] it was 5200 nM. The same measure, in the same setting: in the case of `CSc1nn2ccc(C)nc2c1S(=O)(=O)c1ccc(F)c(Cl)c1` [1.1.2(5), 5-methyl-2-methylsulfanyl-3-(4-fluoro-3-chlorophenylsulfonyl)-pyrazolo[1,5-a]pyrimidine] it was 187 nM. On to `CNc1nn2c(N(C)CCN(C)C)cc(C)nc2c1S(=O)(=O)c1ccccc1` [1.2.12(11)], for which inhibition was half-maximal at 172 nM (IC50). Molecule `CNc1nn2c(C)cc(CN)nc2c1S(=O)(=O)c1ccc(F)cc1` [1.2.23(2).HCl] came in with an IC50 of 37 nM. The same measure, in the same setting: the same measure for `COCc1cc(C)n2nc(SC)c(S(=O)(=O)c3ccccc3)c2n1` [1.1.5(1), 7-methyl-2-methylsulfanyl-5-(methoxymethyl)-3-phenylsulfonyl-pyrazolo[1,5-a]pyrimidine]: 414 nM; for `CNc1nn2c(C)c(CCC(=O)N(C)CCCN(C)C)c(C)nc2c1S(=O)(=O)c1ccccc1` [1.2.19(3).HCl]: 2280 nM.

Molecule `CNc1nn2c(COC)cc(C)nc2c1S(=O)(=O)c1ccccc1` [1.2.4(1), 5-methyl-2-methylamino-7-(methoxymethyl)-3-phenylsulfonyl-pyrazolo[1,5-a]pyrimidine] registered an IC50 of 101 nM. Molecule `CNc1nn2c(N3CCOCC3)cc(C)nc2c1S(=O)(=O)c1ccccc1` [1.1.12(5)] came in with an IC50 of 197 nM. `CNc1nn2c(C)c(CCCN)c(C)nc2c1S(=O)(=O)c1ccccc1` [1.2.22(4).HCl]: the IC50 came out at 78 nM.

Turning to `CNc1nn2c(CN)cc(C)nc2c1S(=O)(=O)c1ccccc1` [1.2.24(1).HCl], the midpoint of inhibition, the IC50, lay at 15 nM. For `CNc1nn2c(-c3cccnc3)ccnc2c1S(=O)(=O)c1ccccc1` [1.2.9(2), 2-methylamino-7-(pyridin-3-yl)-3-phenylsulfonyl-pyrazolo[1,5-a]pyrimidine], the IC50 is 1040 nM. `COc1cc(-c2cccnc2)nc2c(S(=O)(=O)c3ccccc3)c(SC)nn12` [1.1.8(3), 2-methylsulfanyl-7-methoxy-5-(pyridin-3-yl)-3-phenylsulfonyl-pyrazolo[1,5-a]pyrimidine] displayed an IC50 below 10 nM. Same read-out and setting: the same measure for `CSc1nn2c(CO)cc(C)nc2c1S(=O)(=O)c1ccccc1` [1.1.6(1), 7-(hydroxymethyl)-5-methyl-2-methylsulfanyl-3-phenylsulfonyl-pyrazolo[1,5-a]pyrimidine]: 73 nM. Regarding `CNc1nn2c(C)cc(CN(C)C)nc2c1S(=O)(=O)c1ccccc1` [1.2.23(10).HCl], the IC50 is 60 nM. The same measure, in the same setting: in the case of `CNc1nn2c(C)c(CCN(C)C)c(C)nc2c1S(=O)(=O)c1ccccc1` [1.2.22(14).HCl] it was 56.4 nM; in that of `CNc1nn2c(C)c(CN(C)C)c(C)nc2c1S(=O)(=O)c1cccc(Cl)c1` [1.2.22(11).HCl], 22 nM. The same measure, in the same setting: in the case of `COc1cc(-c2ccccn2)nc2c(S(=O)(=O)c3ccccc3)c(SC)nn12` [1.1.8(2), 2-methylsulfanyl-7-methoxy-5-(pyridin-2-yl)-3-phenylsulfonyl-pyrazolo[1,5-a]pyrimidine] it was 30100 nM; in that of `CSc1nn2cccnc2c1S(=O)(=O)c1cccc(Cl)c1` [1.1.1(3)], 473 nM; in that of `CSc1nn2cccnc2c1S(=O)(=O)c1ccc(F)cc1` [1.1.1(7)], 1870 nM. Take `CNc1nn2c(C)c(CN(C)C)c(C)nc2c1S(=O)(=O)c1ccccc1` [1.2.22(10).HCl]: the IC50 was found to be 26 nM. The same measure, in the same setting: in the case of `CNc1nn2c(CN)cc(C)nc2c1S(=O)(=O)c1ccc(F)cc1` [1.2.24(2).HCl] it was 22 nM; in that of `CSc1nn2c(C)ccnc2c1S(=O)(=O)c1ccc(F)c(Cl)c1` [1.1.3(5), 7-methyl-2-methylsulfanyl-3-(4-fluoro-3-chlorophenylsulfonyl)-pyrazolo[1,5-a]pyrimidine], 156 nM. The same measure, in the same setting: the same measure for `CNc1nn2cccnc2c1S(=O)(=O)c1ccccc1` [1.2.1(1), 2-methylamino-3-phenylsulfonyl-pyrazolo[1,5-a]pyrimidine]: 76 nM; for `CSc1nn2cccnc2c1S(=O)(=O)c1cccc(C)c1` [1.1.1(6)]: 2200 nM. Same read-out and setting: in the case of `CNc1nn2c(C)cc(COC)nc2c1S(=O)(=O)c1ccccc1` [1.2.5(1), 7-methyl-2-methylamino-5-(methoxymethyl)-3-phenylsulfonyl-pyrazolo[1,5-a]pyrimidine] it was 4 nM. As to `CNc1nn2c(C)c(N(C)C)c(C)nc2c1S(=O)(=O)c1ccccc1` [1.2.22(24).HCl], half-maximal inhibition (IC50) was put at 6 nM. On the same count and under the same terms, in the case of `CNc1nn2c(CCN)cc(C)nc2c1S(=O)(=O)c1ccccc1` [1.2.24(3).HCl] it was 30 nM; in that of `CNc1nn2c(-c3cccnc3)cc(C)nc2c1S(=O)(=O)c1ccccc1` [1.2.9(7), 5-methyl-2-methylamino-7-(pyridin-3-yl)-3-phenylsulfonyl-pyrazolo[1,5-a]pyrimidine], 341 nM; in that of `CNc1nn2c(C)cc(CN(C)C)nc2c1S(=O)(=O)c1cccc(Cl)c1` [1.2.23(11).HCl], 67 nM.

As to `CNc1nn2c(-c3ccccn3)cc(-c3ccccn3)nc2c1S(=O)(=O)c1ccccc1` [1.2(4)], the IC50 came out at 723 nM. The same measure, in the same setting: the same measure for `CSc1nn2cccnc2c1S(=O)(=O)c1ccc(F)c(Cl)c1` [1.1.1(4)]: 912 nM. The same measure, in the same setting: the same measure for `CNc1nn2c(NC)cc(C)nc2c1S(=O)(=O)c1ccccc1` [1.2.12(1), 2,7-di(methylamino)-5-methyl-3-phenylsulfonyl-pyrazolo[1,5-a]pyrimidine]: 9 nM. Take `CNc1nn2c(CN(C)C)cc(C)nc2c1S(=O)(=O)c1cccc(Cl)c1` [1.2.24(11).HCl]: the half-maximal inhibitory concentration (IC50) is 33 nM. Still for that read-out and setting: in the case of `CNc1nn2c(N(C)C)cc(-c3cccnc3)nc2c1S(=O)(=O)c1ccccc1` [1.2.12(9), 7-dimethylamino-2-methylamino-5-(pyridin-3-yl)-3-phenylsulfonyl-pyrazolo[1,5-a]pyrimidine] it was 13 nM; in that of `CNc1nn2c(N(C)CCN(C)C)cc(C)nc2c1S(=O)(=O)c1ccccc1` [1.2.12(12)], 1860 nM.

As for `CNc1nn2ccc(C)nc2c1S(=O)(=O)c1ccccc1` [1.2.2(1), 5-methyl-2-methylamino-3-phenylsulfonyl-pyrazolo[1,5-a]pyrimidine], 16 nM corresponded to half-maximal inhibition (IC50). On the same count and under the same terms, the same measure for `CSc1nn2c(C)c(Oc3cccnc3)c(C)nc2c1S(=O)(=O)c1ccccc1` [1.1(7)]: 514 nM.

Regarding `CNc1nn2c(C)c(CN)c(C)nc2c1S(=O)(=O)c1cccc(F)c1` [1.2.22(6).HCl], the IC50 amounted to 25.2 nM.

The molecule `CNc1nn2c(N(C)C)cc(C)nc2c1S(=O)(=O)c1ccccc1` [1.2.12(2), 7-dimethylamino-5-methyl-2-methylamino-3-phenylsulfonyl-pyrazolo[1,5-a]pyrimidine] displayed an IC50 of 12 nM.

With `CNc1nn2c(CO)cc(C)nc2c1S(=O)(=O)c1ccccc1` [1.2.6(1), 7-(hydroxymethyl)-5-methyl-2-methylamino-3-phenylsulfonyl-pyrazolo[1,5-a]pyrimidine], half-maximal inhibition (IC50) required 4 nM.

Molecule `CNc1nn2c(CCN(C)C)cc(C)nc2c1S(=O)(=O)c1ccccc1` [1.2.24(14).HCl] had an IC50 of 899 nM.

In turn, `CSc1nn2ccc(C)nc2c1S(=O)(=O)c1ccccc1` [1.1.2(1), 5-methyl-2-methylsulfanyl-3-phenylsulfonyl-pyrazolo[1,5-a]pyrimidine] returned an IC50 of 450 nM. Same read-out and setting: the same measure for `CNc1nn2c(CN(C)C)cc(C)nc2c1S(=O)(=O)c1ccccc1` [1.2.24(10).HCl]: 21 nM. For the molecule `CNc1nn2c(C)c(Cl)c(C)nc2c1S(=O)(=O)c1ccccc1` [1.2(1)], the IC50 was 52 nM. The same measure, in the same setting: the same measure for `CNc1nn2c(CN(C)C)cc(C)nc2c1S(=O)(=O)c1cccc(F)c1` [1.2.24(12).HCl]: 35 nM; for `CNc1nn2c(C)cc(CN(C)C)nc2c1S(=O)(=O)c1cccc(F)c1` [1.2.23(12).HCl]: 70 nM.

Another assay deals with T1, 5-HT6 receptor. The assay is described as follows: competitive radioligand binding ([3H] Lysergic acid diethylamide) to serotonin 5-HT6 receptors, HeLa cell membranes. The conditions noted are these: read-out: IC50, competitive assay of serotonin 5-HT6 receptor inhibition; displacement of 1.5 nM [3H] Lysergic acid diethylamide, 120 min at 37° C.
Method: Determination of activity of the compounds of the general formula 1 in the setting of competitive binding to serotonin 5-HT6 receptors.
Screening of the disclosed compounds for their potential ability to interact with serotonin 5-HT6 receptors was carried out by method of radioligand binding. For this purpose membrane species were prepared from expressing recombinant human 5-HT6 receptors HeLa cells by means of their homogenization in glass homogenizer with subsequent separation of plasmatic membranes from cell nucli, mitochondria's and cell wreckages by differential centrifugation. Determination of tested compounds binding to 5-HT6 receptors was carried out according to the method described in [Monsma F J Jr, Shen Y, Ward R P, Hamblin M W and Sibley D R, Cloning and expression of a novel serotonin receptor with high affinity for tricyclic psychotropic drugs. […] After incubation the samples were filtered in vacuo on glass-microfiber filters G/F (Millipor, USA), filters were washed three times with cold solution of the medium and radioactivity was measured by scintillation counter MicroBeta 340 (PerkinElmer, USA). Nonspecific binding which made up 30% of overall binding was determined by incubation of membrane preparations with radioligand in the presence of 5 μM Serotonin (5-HT). Methiothepin was used as positive control. Binding of the tested compounds to the receptor was determined by their ability to displace the radioligand and expressed in percent of displacement. The percent of displacement was calculated according to the following equation:
[formula] wherein: TA—was overall radioactivity in the presence of radioligand only, CA—was radioactivity in the presence of radioligand and tested compound and NA—was radioactivity in the presence of radioligand and Serotonin (5 μM).
For `CNc1nn2c(C)c(CCC(=O)N3CCN(C)CC3)c(C)nc2c1S(=O)(=O)c1ccccc1` [1.2.19(4).HCl], the IC50 is 306 nM. As for `CSc1nn2ccc(C)nc2c1S(=O)(=O)c1ccc(F)cc1` [1.1.2(2), 5-methyl-2-methylsulfanyl-3-(4-fluorophenylsulfonyl)-pyrazolo[1,5-a]pyrimidine], the IC50 is 50 nM.

As to `CNc1nn2c(C)c(N)c(C)nc2c1S(=O)(=O)c1ccccc1` [1.2.22(1).HCl], the IC50 came to 0.67 nM. The same measure, in the same setting: the same measure for `CNc1nn2c(C)c(CCC(=O)N(C)CCCN(C)C)c(C)nc2c1S(=O)(=O)c1ccccc1` [1.2.19(3).HCl]: 291 nM; for `CNc1nn2c(COC)cc(C)nc2c1S(=O)(=O)c1ccccc1` [1.2.4(1), 5-methyl-2-methylamino-7-(methoxymethyl)-3-phenylsulfonyl-pyrazolo[1,5-a]pyrimidine]: 0.34 nM. On the same count and under the same terms, in the case of `COc1cc(-c2cccnc2)nc2c(S(=O)(=O)c3ccccc3)c(SC)nn12` [1.1.8(3), 2-methylsulfanyl-7-methoxy-5-(pyridin-3-yl)-3-phenylsulfonyl-pyrazolo[1,5-a]pyrimidine] it was below 10 nM. Consider `CCOC(=O)Cc1c(C)nc2c(S(=O)(=O)c3ccccc3)c(NC(C)C)nn2c1C` [1.2.13(3)], for which the 50% inhibitory concentration (IC50) was determined as 1.28 nM. As to `CNc1nn2c(N3CCOCC3)cc(C)nc2c1S(=O)(=O)c1ccccc1` [1.2.12(5), 5-methyl-2-methylamino-7-(morfolin-4-yl)-3-phenylsulfonyl-pyrazolo[1,5-a]pyrimidine], the IC50 stood at 31 nM. With `CNc1nn2c(C)c(CC(=O)N(C)C)c(C)nc2c1S(=O)(=O)c1ccccc1` [1.2.19(1).CH3CO2H], the IC50 was 15.3 nM.

The record behind these values is US8618114B2 (priority 2008, dated 2013).
